Columns and labels:
[1] = Test 10: hepatotoxic risk, dansyl glutathione (dGSH) trapping assay; assay type: in vitro ADME; settings: human hepatic microsome, 37° C., 60 minutes; N.D. means below detection limit
Procedure: Test 10: Evaluation of Hepatotoxic Risk (Dansyl Glutathione (dGSH) Trapping Assay)
The present compound was metabolized in hepatic microsome, and from the resulted metabolite, reactive metabolite which reacts with dancyl glutathione (dGSH) was detected and quantified as the following method. Measurement was carried out with a screening robot (Tecan) for metabolic reaction, and with a fluorescence detection UPLC system (Waters) for metabolite-dGSH binding concentration.
The present compound was dissolved in DMSO to prepare 10 mmol/L test compound solution. 7.6 mL of potassium phosphate buffer (500 mmol/L, pH 7.4), 1.9 mL of human hepatic microsome (Xenotech, 20 mg protein/mL), and 1.27 mL of pure water were mixed to prepare a microsome solution. To 3.78 mL of the microsome solution was added 0.67 mL of pure water to prepare a microsome (dGSH(−)) solution. To 6.48 mL of the microsome solution was added 1.14 mL of the dGSH solution (20 mmol/L) to prepare a microsome (dGSH(+)) solution. […] 33 mg of tris(2-carboxyethyl)phosphine (TECP) was dissolved in 115 mL of methanol to prepare a reaction stop solution.
12 μL of the test compound solution was mixed with 388 μL of pure water, and the mixture was dispensed in 50 μL each into 6 wells of a 96-well plate. […] To the “reaction group” and “unreacted group” was added the microsome (dGSH(+)) solution, and to the “dGSH-free group” was added the microsome (dGSH(−)) solution in 50 μL each. To the “reaction group” and “dGSH-free group” was added to the cofactor solution, and to the “unreacted group” was added pure water in 50 μL each. After incubated at 37° C. for 60 minutes, the reaction stop solution was added in 450 μL each to stop the reaction. […]
Metabolite-dGSH binding concentration was measured by the following conditions, using a fluorescence detection UPLC system. […]
Fluorescence intensity was corrected with the composition of organic solvent at the time of elution because fluorescence intensity changes depending on the composition of organic solvent.

[2] = Test 3-1: metabolic stability test in human hepatic microsome; assay type: in vitro ADME; settings: microsome 0.1 mg/mL, test compound 0.1 μmol/L, 37° C., 30 minutes
Method in brief: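 Test compound at 0.1 μmol/L incubated 30 min at 37° C with human liver microsomes 0.1 mg/mL and NADPH 3.2 mmol/L in 25 mmol/L phosphate buffer, pH 7.4. Residual compound measured by LC-MS; stability (mL/min/mg protein) = −LN(residual ratio)/30/0.1.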

hERG channel = hERG channel (Homo sapiens (Human), UniProt Q12809); assay: Test 5: inhibitory activity for hERG channel (whole cell patch clamp, hERG-CHO cells); assay type: cell-based; settings: for IC50: hERG-CHO cells, auto patch clamp; for hERG inhibitory IC50 (nmol/L)/5-HT2A Ki (nmol/L) / hERG inhibitory IC50 (nmol/L)/5-HT7 Ki (nmol/L): ratio
Method in brief: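 Automated whole-cell patch clamp on CHO cells stably expressing hERG (IKr), pulses every 15 s. Each compound applied at 4 incremental concentrations. Value based on mean peak tail current from the last 3 stimulations at each concentration.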

human 5-HT7 receptor [3] = target: T1, human 5-HT7 receptor (Homo sapiens (Human), UniProt P34969); assay: Test 2: antagonist activity for human 5-HT7 receptor (aequorin luminescence, CHO-K1 cells); assay type: cell-based; settings: Gα16
Method in brief: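 Antagonism was measured by aequorin luminescence in CHO-K1 cells transiently expressing the receptor together with Gα16. Compounds in DMSO were added after the cells rested 2 h at room temperature. The 10 μmol/L endogenous-ligand response defined 100% for calculating inhibitory activity.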

human 5-HT7 receptor [4] = target: T1, human 5-HT7 receptor; assay: Test 1: binding activity for human 5-HT7 receptor ([3H]SB-269970, CHO cell membrane fraction); settings: [3H]SB-269970, room temperature 60 minutes
Procedure: (§1) Ki value was evaluated from dissociation constant which was calculated from saturated binding tests, and a substrate concentration, and it was used as an index for binding affinity.

[5] = Test 9: intracerebral transferability in rats; assay type: in vivo; settings: brain and plasma (unbound); SD or WKY rat, subcutaneous or oral, 0.5, 1 or 2 hours; unbound brain/plasma ratio
Procedure: In this test, intracerebral transferability of the present compound was evaluated by the following method. The present compounds were subcutaneously administered as a solution in saline, or orally administered as a suspension in methyl cellulose to a 7-week-old SD or WKY rat. Plasma and brain were collected on 0.5 hour, 1 hour, or 2 hours after the administration in order to measure the drug concentrations in plasma and brain by LC-MS.
Binding rates of the present compound to plasma and brain protein were measured by equilibrium dialysis method.
Kp,uu,brain (unbound drug concentration ratio between brain/plasma) can be calculated by applying the compound concentrations in plasma and brain and the binding rates to plasma and brain protein obtained from the above test into the following formula. Kp,uu,brain=(Compound concentration in brain×(100−Binding rate to brain protein (%))/100)/(Compound concentration in plasma×(100−Binding rate to plasma protein (%))/100)

human 5-HT2A receptor [6] = target: T2, human 5-HT2A receptor (Homo sapiens (Human), UniProt P28223); assay: Test 1: binding activity for human 5-HT2A receptor ([3H]Ketanserin, CHO cell membrane fraction); settings: room temperature 60 minutes
Procedure: as §1

human 5-HT2A receptor [7] = target: T2, human 5-HT2A receptor; assay: Test 2: antagonist activity for human 5-HT2A receptor (aequorin luminescence, CHO-K1 cells); assay type: cell-based; settings: Gα16
Procedure: Test 2: Evaluation of Antagonist Activity for Human 5-HT2A Receptor and Human 5-HT7 Receptor
Aequorin, Gα 16 protein, and each receptor were transiently expressed in CHO-K1 cells (Chinese hamster ovary). The cells were cultivated in a CO2 incubator at 37° C. overnight, seeded into a 384-well plate, and stood at room temperature for 2 hours. Each compound dissolved in DMSO was added thereto, and changes in luminescence were measured by FDSS/μCELL drug discovery screening support system (Hamamatsu Photonics K.K.). As for antagonist activity, inhibitory activity of each compound was calculated by setting the luminescence level of wells to which 10 μmol/L endogenous ligand was added as 100%.

human D2 receptor = human D2 receptor (Homo sapiens (Human), UniProt P14416); assay: Test 1: binding activity for human D2 receptor ([3H]Spiperone, CHO cell membrane fraction); settings: for Ki: [3H]Spiperone, room temperature 60 minutes; for D2 Ki/5-HT2A Ki / D2 Ki/5-HT7 Ki: selectivity ratio
Procedure: as §1

T2 sequence (P28223 whole entry): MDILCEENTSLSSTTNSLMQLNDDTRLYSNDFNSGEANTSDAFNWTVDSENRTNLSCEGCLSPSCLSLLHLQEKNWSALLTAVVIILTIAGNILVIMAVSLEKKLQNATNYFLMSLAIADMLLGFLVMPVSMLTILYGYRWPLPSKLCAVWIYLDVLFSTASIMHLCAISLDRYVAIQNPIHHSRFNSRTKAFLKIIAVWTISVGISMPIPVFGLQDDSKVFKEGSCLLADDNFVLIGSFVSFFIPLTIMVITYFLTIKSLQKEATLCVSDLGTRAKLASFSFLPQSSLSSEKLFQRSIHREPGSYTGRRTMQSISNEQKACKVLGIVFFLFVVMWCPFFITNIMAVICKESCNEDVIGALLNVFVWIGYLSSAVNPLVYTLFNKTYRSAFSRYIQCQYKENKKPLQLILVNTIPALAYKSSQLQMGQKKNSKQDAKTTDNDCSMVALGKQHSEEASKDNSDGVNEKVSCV
Chain of hERG channel (Q12809 whole entry): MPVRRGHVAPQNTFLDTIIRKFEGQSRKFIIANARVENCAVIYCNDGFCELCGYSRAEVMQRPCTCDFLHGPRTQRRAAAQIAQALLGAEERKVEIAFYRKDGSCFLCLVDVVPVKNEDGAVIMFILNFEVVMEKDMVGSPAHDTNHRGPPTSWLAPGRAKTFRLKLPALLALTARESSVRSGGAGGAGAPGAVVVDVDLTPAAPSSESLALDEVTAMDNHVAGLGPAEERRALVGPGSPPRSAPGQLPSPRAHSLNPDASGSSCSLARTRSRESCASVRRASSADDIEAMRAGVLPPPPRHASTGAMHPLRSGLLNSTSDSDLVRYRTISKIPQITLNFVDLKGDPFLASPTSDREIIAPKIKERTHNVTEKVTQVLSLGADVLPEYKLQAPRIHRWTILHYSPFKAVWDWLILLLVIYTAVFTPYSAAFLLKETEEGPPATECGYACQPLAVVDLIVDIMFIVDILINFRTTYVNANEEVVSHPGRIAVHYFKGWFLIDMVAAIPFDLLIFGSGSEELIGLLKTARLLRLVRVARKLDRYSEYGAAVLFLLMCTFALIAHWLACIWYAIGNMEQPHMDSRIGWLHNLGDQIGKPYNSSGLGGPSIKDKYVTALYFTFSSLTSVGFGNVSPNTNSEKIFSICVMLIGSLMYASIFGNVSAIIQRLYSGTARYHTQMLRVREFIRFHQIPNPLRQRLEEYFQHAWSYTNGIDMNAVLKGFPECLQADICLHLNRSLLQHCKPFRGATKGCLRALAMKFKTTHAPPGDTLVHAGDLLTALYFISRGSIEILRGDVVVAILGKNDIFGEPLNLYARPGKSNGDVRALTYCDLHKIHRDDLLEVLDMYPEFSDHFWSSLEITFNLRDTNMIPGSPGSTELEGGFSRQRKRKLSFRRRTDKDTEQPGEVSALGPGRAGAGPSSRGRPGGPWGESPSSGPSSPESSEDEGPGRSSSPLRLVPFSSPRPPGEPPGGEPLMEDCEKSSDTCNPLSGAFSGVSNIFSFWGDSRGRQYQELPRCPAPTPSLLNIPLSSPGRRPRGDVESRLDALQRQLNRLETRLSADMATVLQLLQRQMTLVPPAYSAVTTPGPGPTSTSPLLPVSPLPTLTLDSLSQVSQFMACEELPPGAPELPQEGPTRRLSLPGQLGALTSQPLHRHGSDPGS
Chain of human D2 receptor (P14416 whole entry): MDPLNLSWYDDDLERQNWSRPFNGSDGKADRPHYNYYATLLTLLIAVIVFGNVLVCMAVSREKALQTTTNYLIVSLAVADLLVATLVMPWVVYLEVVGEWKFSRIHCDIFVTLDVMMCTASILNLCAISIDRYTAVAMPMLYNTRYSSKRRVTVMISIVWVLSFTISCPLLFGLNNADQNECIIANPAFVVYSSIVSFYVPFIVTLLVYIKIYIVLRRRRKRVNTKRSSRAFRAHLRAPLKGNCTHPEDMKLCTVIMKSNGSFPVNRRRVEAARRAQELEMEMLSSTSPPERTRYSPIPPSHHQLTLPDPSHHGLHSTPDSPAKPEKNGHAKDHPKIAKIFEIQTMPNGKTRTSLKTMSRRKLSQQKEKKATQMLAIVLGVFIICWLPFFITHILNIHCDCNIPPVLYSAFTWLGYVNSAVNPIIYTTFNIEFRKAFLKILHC
T1 sequence (P34969 whole entry): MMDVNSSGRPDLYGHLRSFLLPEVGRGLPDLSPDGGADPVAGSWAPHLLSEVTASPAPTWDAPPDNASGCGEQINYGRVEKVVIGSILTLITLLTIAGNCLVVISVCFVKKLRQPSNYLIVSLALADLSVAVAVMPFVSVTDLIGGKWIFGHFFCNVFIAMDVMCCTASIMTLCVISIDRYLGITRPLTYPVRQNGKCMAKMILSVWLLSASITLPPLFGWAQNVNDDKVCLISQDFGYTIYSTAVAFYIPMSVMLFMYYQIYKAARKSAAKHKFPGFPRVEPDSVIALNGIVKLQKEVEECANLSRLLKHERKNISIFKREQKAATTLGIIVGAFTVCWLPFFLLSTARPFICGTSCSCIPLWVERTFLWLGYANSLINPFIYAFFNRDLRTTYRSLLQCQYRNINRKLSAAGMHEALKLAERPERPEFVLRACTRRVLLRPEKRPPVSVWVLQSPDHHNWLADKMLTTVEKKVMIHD

SMILES	Metabolite-dGSH binding concentration [1] [µM]	Metabolic stability in human hepatic microsome [2] [mL/min/mg protein]	IC50 (hERG channel) [nM]	IC50 (human 5-HT7 receptor [3]) [nM]	Ki (human 5-HT7 receptor [4]) [nM]	Kp uu at 2 h [5]	Ki (human 5-HT2A receptor [6]) [nM]	IC50 (human 5-HT2A receptor [7]) [nM]	hERG inhibitory IC50 (nmol/L)/5-HT2A Ki (nmol/L) (hERG channel)	hERG inhibitory IC50 (nmol/L)/5-HT7 Ki (nmol/L) (hERG channel)	Ki (human D2 receptor) [nM]	D2 Ki/5-HT2A Ki (human D2 receptor)	D2 Ki/5-HT7 Ki (human D2 receptor)
CCN(CCN1CCC(c2noc3cc(F)c(C)cc23)CC1)C(=O)[C@H](C)O [Example 13]	0.214	0.054	2900	81	–	–	–	–	–	–	–	–	–
CCN(CCN1CCC(c2noc3cc(F)ccc23)CC1)C(=O)C(O)COC (stereo not drawn) [Example 18, N-Ethyl-N-{2-[4-(6-fluoro-1,2-benzoisoxazol-3-yl)piperidin-1-yl]ethyl}-2-hydroxy-3-methoxypropanamide]	–	<0.05	4100	72	3.7	0.56	2.5	58	1637	1097	198	–	–
CCN(CCN1CCC(c2noc3cc(F)ccc23)CC1)C(=O)C1(O)CC1 [Example 24]	7.645	<0.05	5500	41	–	–	–	7	5203	4988	–	–	–
CCN(CCN1CCC(c2noc3cc(F)ccc23)CC1)S(=O)(=O)C(C)CO (stereo not drawn) [Example 52]	–	–	–	177	333	–	298	946	–	–	> 10000	>34	>30
CCN(CCN1CCC(c2noc3cc(F)ccc23)CC1)C(=O)C(O)CNC(C)=O (stereo not drawn) [Example 71, 3-Acetamide-N-ethyl-N-{2-[4-(6-fluoro-1,2-benzoisoxazol-3-yl)piperidin-1-yl]ethyl}-2-hydroxypropanamide]	0.132	<0.05	–	–	–	–	–	–	>4452	–	–	99	36

Reference: patent US11339151B2, “Aliphatic acid amide derivative” (Sumitomo Dainippon Pharma Co., Ltd., priority 2019, dated 2022)
